Experimental data reported in EP2241565A1, “Aurora kinase inhibitors compounds” (Universität Leipzig, priority 2009, dated 2010).
“Also recorded” adds a separate entry of the source.

How the values were obtained:
Aurora B = target: T1, Aurora B (Homo sapiens, UniProt Q96GD4); test: In vitro Aurora B kinase assay (Invitrogen Z'-lyte kinase assay kit, Ser/Thr 1 peptide); type: biochemical; settings: 64 µM ATP
T1 construct: purchased Invitrogen PV3970
Protocol: The IC50 for the different compounds was determined with Invitrogen Z'-Iyte kinase assay kit Ser/Thr 1 peptide PV3174 following the manufacturer's instructions. […] This amount was then used in subsequent assay steps.
Compounds were prepared in 384-well plates (Greiner 384-well PP 781280) at a highest concentration of 400 µM (in 4% DMSO) and then serially diluted in 2-fold steps by hand, keeping the DMSO percentage constant. 1.25 µl of compound solution was subsequently transferred 1:1 to a 384-well assay plate (Greiner 384-well ProxiPlate Plus F 6008260) for screening at a highest concentration in the final assay of 100 µM (in 1% DMSO).
In the first step, 2.5 µl of a solution containing 8 nM Aurora A (batch S74, prepared in-house at EMBL) or 40 nM Aurora B (Invitrogen PV3970) and 4 µM Ser/Thr peptide 1 (Invitrogen PV3174) was added to each well, followed by 1.25 µl of the respective ATP solution (40 µM for Aurora A, 256 µM for Aurora B). […] In the final step, the reaction in each well was stopped by the addition of 2.5 µl Stop reagent, followed by a brief centrifugation step and immediate readout (PerkinElmer EnVision HTS; ex. 405 nm, coumarin em. 450 nm, fluorescein em. 535 nm).
Percentage phosphorylation was calculated using 0% and 100% phosphorylation controls. […]

[1] = system: histone H3 phosphorylation on Ser 10; test: Western Blot analysis of histone H3 phosphorylation in mitotic cells; type: cell-based, human; settings: mitotic HeLa cells synchronized with nocodazole, treated 20 h, any of the concentrations tested
Protocol: For Western Blot analysis of HH3 phosphorylation levels in mitosis HeLa cells were arrested with 2 mM thymidine for 18 h, released into fresh medium for 6 h, and blocked with 2 µM nocodazole for 16 h. DMSO or the different compounds were added 1 h after thymidine release. Mitotic cells were shaken off and lysed in 50 mM Tris pH 6,8- 2% SDS. Samples were sonicated and boiled. 30 µg protein extract (as determined by Bradford assay, Bio-Rad protein assay) was loaded on SDS-PAGE, transferred to a nitrocellulose membrane and blotted with anti-phospho HH3 (Upstate), anti-Aurora A and anti-tubulin antibodies (Sigma, DM1A).

[2] = system: H2B-GFP/mRFP-αTubulin HeLa cells; test: Time-lapse video microscopy of live cells; type: cell-based, human; settings: 40 µM
Protocol: Upon treatment, living cells were added to a humidified chamber at 37 °C with 5% CO2 attached to a Carl Zeiss microscope (SN:3834000366) equipped with a Hamamatsu EM-CCD digital camera, controlled by AxioVision 4.6 software. Cells were imaged every 3 or 4.5 min (depending on the number of fields filmed) for over 16 h-24 h. Images were taken with the AxioCam MRm 426205 objective and processed using AxioVision software.
The increase in the proportion of cells with more than 2n DNA content could be due to several causes: several cycles of DNA replication or cytokinesis errors as shown for cells treated with other Aurora inhibitors. To determine the primary cause for the phenotype produced by (C) and examine whether (A) may interfere with mitosis, we examined live cells by time-lapse video microscopy. To visualize DNA and microtubules we used a HeLa stable cell line expressing H2B-GFP and mRFP-αTubulin. […] The resulting time-lapse images were used to determine the following parameters: (1) the percentage of cell death among non dividing cells (Figure 4A), (2) the percentage of cells entering mitosis (Figure 4B), (3) the outcome of mitosis: normal division (cell division), return to interphase without chromatin segregation and without dividing (no division), cytokinesis failure (division errors), cell death without resolving mitosis (cell death) (Figure 4C), and (4) the length of time spent in mitosis (TIM), defined as the interval between DNA condensation and anaphase resolution (Figure 4D).

T1 sequence (Q96GD4 whole entry): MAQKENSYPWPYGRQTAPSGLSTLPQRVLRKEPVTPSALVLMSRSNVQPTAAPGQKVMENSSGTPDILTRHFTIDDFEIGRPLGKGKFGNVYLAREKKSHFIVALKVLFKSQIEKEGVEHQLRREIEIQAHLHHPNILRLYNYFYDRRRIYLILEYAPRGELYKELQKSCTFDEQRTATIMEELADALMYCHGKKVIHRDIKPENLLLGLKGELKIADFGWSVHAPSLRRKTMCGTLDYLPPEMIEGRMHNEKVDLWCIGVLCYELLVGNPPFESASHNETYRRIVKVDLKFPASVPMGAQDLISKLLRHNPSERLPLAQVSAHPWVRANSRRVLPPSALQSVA

Row | SMILES | IC50 (Aurora B) | HH3-Ser10 phosphorylation [1] | cell death among non dividing cells / cell viability [2] | outcome of mitosis [2] | time spent in mitosis (TIM), median [2] | number of cells entering mitosis ([2]; 16 h-24 h) | cells entered mitosis ([2]; time-lapse video microscopy)
1 | CC(C)Nc1nc(-c2ccco2)nc2ccc(/C=C/C(C)(C)O)cc12 [Compound (A), (E)-4-(2-(Furan-2-yl)-4-(isopropylamino)quinazolin-6-yl)-2-methylbut-3-en-2-ol] | 16.2 µM | no effect | increased cell death rate; also recorded: massive cell death; also recorded: strong effect on cell viability independent of mitosis | completed it successfully |  |  | 
2 | CC(C)Nc1nc(-c2ccco2)nc2ccc(C#CCO)cc12 [Compound (C), 3-(2-(Furan-2-yl)-4-(isoiproipylamino)quinazolin-6-yl)prop-2-yn-l-ol] | 3380 µM | no effect |  | unable to align their chromosomes and died without entering a new interphase; also recorded: died without returning to interphase or right after an asymmetric segregation | 375 min | reduced | 28.8%
